Measurements: patent US12662451B2, “Chemical compounds and uses thereof” (GLAXOSMITHKLINE INTELLECTUAL PROPERTY (NO.4) LIMITED, priority 2023, dated 2026)
Counter-ions that a name gives are not always drawn. Like-named read-outs stand apart in the source and are kept apart here.

Assays:
[1] = system: SW48 human colorectal cancer cells; experiment: Calculated free drug potency in SW48 cell assay, corrected with media free fraction (Example C); assay type: cell-based; settings: Homo sapiens, SW48, SW48 pCC50 corrected with measured free fraction in cell assay media
In short: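 Compound spiked at nominal 1 μM into cell assay medium and dialysed against PBS (100 mM sodium phosphate, 150 mM NaCl, pH 7.4) by rapid equilibrium dialysis, 4 h, 37 °C, shaking. Percent unbound from LC-MS/MS peak area ratios (240 min vs 0 min); cell assay concentrations corrected by this free fraction.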

[2] = system: SW48 human colorectal cancer cell line xenografts; experiment: In vivo efficacy in mouse model bearing SW48 xenografts (Example D); settings: SW48 xenograft, female nude mice
Method: In Viva Efficacy Study of Test Compounds in Mouse Model Bearing SW48 Human Colorectal Cancer Cell Line Xenografts
Experiments were performed with female Crl:Nu-Foxn1^nu nude mice. Animals were housed under optimized hygienic condition with food and water at libitum and a 12 h:12 h light:dark cycle. Animals were allowed to acclimatize for at least 4 days before being enrolled in the experimental design.
SW48 human colorectal cancer cells (RRID:CVCL1724) were obtained from ATCC. The cells were cultured in RPMI 1640 with 10% Fetal Bovine Serum at 37° C. in atmosphere of 5% CO2 in air. To establish SW48 xenografts, cells were harvested and resuspended in serum free RPM11640 and Matrigel before inoculation and 5×10^6 SW48 tumor cells were injected subcutaneously in 100 μL volume using 27G1/2 needle. Cells were inoculated in the right hind flank of the animals.
Post cell inoculation, tumor growth was monitored daily, and animals were randomized into treatment groups (n=10/group) once the tumor volume reached an appropriate size (80-150 mm^3). Throughout the treatment period, both tumor volume and body weight were measured approximately twice a week. The tumor size, in mm^3, was computed using the formula: 0.5×L×W^2, where W=width and L=length of the tumor. To prepare a test compound for oral administration, between 30-120 mg of the test compound was dissolved in a vehicle solution consisting of 0.5% Methycellulose (cp 400) and 0.5% Tween 80. The compound was freshly prepared one hour prior to daily administration. If turbidity was observed, the solution was vortexed at over 2000 rpm for 10 minutes and mixed with a 1 mL syringe. The resulting solution formulation was utilized for in vivo studies.
Animals received either a vehicle or test compounds at dosage of 30 or 100 mg/kg daily through oral gavage (10 ml/kg). Body weight was measured twice a week using the Ohaus electronic scale (STX421) and the data was automatically added to the study log. Moreover, daily clinical observations were performed to closely monitor the animals. Tumor growth inhibition was computed using the following formula:
[formula] where T=current group value; T0=Current group initial value; C=Control group Value; C0=control group initial value.
Data of tumor volume were exported and analyzed in GraphPad Prism (9.5). The analysis included a two-way ANOVA test, comparing the vehicle control vs. treatments at different time points, followed by a Tukey HSD post hoc test.
The calculation of tumor regression was conducted as per the following formula:
[formula] where Day 0=treatment start day; Δ tumor volume=mean tumor volume on the evaluation day—mean tumor volume Day 0.

[3] = system: SW48 human colorectal cancer cells (MSI-H cancer cells); experiment: SW48 cell viability, CellTiter-Glo, 120 hours (Example B); settings: for CC50: Homo sapiens
[4] = target: T1, recombinant full-length WRN protein (1-1432) (Homo sapiens, UniProt Q14191); experiment: WRN unwinding activity, fluorogenic 384-well assay (Example A); assay type: biochemical; settings: WRN unwinding activity, 4 hr; Table 2; read-out: 4 hr UNW pIC50 (converted)
T1 construct: recombinant full-length WRN protein (1-1432)
T1 sequence (Q14191 whole entry): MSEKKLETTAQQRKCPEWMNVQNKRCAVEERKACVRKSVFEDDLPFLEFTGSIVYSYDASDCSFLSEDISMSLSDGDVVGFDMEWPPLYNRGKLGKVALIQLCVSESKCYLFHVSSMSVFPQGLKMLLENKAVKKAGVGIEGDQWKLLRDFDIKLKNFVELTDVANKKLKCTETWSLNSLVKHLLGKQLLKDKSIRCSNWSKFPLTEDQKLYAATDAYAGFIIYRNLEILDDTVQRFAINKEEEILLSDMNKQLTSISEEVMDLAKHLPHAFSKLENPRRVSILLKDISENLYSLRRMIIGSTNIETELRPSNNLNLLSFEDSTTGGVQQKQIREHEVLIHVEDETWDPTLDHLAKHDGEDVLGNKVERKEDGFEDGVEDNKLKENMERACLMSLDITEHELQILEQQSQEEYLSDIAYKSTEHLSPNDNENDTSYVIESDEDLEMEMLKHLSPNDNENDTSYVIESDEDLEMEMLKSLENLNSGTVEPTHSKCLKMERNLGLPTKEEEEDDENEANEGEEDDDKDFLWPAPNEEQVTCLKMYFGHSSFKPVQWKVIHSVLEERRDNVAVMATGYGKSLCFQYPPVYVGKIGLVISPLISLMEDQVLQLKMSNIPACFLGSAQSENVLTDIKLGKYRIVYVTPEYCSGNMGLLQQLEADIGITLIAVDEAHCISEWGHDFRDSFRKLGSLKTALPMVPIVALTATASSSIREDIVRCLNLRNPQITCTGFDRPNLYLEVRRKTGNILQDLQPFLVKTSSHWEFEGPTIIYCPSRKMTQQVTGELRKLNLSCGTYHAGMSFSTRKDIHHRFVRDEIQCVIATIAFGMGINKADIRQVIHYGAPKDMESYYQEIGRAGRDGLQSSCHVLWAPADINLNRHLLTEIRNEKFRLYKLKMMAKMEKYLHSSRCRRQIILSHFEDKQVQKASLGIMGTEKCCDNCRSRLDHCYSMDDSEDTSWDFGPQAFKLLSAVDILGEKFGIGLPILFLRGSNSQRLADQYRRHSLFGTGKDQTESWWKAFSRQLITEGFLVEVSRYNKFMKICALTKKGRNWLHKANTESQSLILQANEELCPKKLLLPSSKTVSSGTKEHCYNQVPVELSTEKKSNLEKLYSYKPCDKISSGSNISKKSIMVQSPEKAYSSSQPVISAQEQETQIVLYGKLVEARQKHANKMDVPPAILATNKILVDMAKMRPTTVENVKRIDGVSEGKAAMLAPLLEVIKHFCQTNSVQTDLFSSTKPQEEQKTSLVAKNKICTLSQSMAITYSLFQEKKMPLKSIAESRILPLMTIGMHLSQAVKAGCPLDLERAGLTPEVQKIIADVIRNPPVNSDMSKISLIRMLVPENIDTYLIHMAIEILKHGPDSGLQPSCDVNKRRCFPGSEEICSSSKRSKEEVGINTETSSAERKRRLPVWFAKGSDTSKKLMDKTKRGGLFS
In short: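 200 pM enzyme (2× stock) preincubated with compound 4 h at ambient temperature, then 200 μM ATP and 12 nM quenched TAMRA-labelled dsDNA (2× stocks) added for 60 min; EDTA-quenched. Buffer 25 mM Tris pH 8.0, 5 mM NaCl, 2 mM MgCl2. Fluorescence at 525/598 nm; pIC50 from four-parameter fit.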

[5] = Cell culture media unbound percentage and stability by rapid equilibrium dialysis (Example C); assay type: in vitro ADME; settings: bovine, cell assay medium (RPMI-1640 with 10% fetal bovine serum), pH 7.4, rapid equilibrium dialysis, 4 hours at 37° C., read-out: Cell Culture Media Binding (% unbound)
In short: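 Compound spiked into cell culture medium at nominal 1 μM and dialysed against PBS (100 mM sodium phosphate + 150 mM NaCl, pH 7.4) by rapid equilibrium dialysis, triplicate, 4 h at 37° C with shaking. LC-MS/MS peak area ratios gave percent unbound (receiver/donor) and percent stability (240 min vs 0 min).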

[6] = SW48, read-out: SW48 pCC50, measured potency from Example B, as repeated in Table 3 (converted)
[7] = SW48, 120 h, read-out: SW48 pCC50, SW48 cell viability, 120 hours incubation (converted), Table 2

| IC50 [4] [µM] | fraction unbound at 4 h, 1 µM [5] | SMILES | CC50 [1] [µM] | mean tumor regression ([2]; 100 mpk daily oral, 55th day) [%] | CC50 [3, 6] [µM] | SW48 pCC50 ([3]; SW48 cell viability, 120 hours incubation, Table 2) | mean tumor regression ([2]; 30 mpk orally once a day, 21st day) [%] | CC50 [3, 7] [µM] | tumor growth inhibition compared to the vehicle control ([2]; 30 mpk daily oral, 21st day) [%] |
| --- | --- | --- | --- | --- | --- | --- | --- | --- | --- |
| 0.00251 | 0.065 | Cc1nc2cc(S(=O)(=O)N(C)c3ccc([C@H]4CCC[C@@H](C(=O)Nc5ccc(C(F)(F)F)cc5F)[C@@H]4C(=O)O)cc3)ccc2n1C (single isomer, unassigned) [Example 83] | 0.0129 | −24.01 | 0.251 | 6.6 |  |  |  |
| 0.00316 | 0.067 | CCO[C@@H]1C[C@H](c2ccc(N(C)S(=O)(=O)c3ccc4c(c3)nc(C)n4C)cc2)[C@@H](C(=O)O)[C@H](C(=O)Nc2ccc(C(F)(F)F)cc2F)C1 (single isomer, unassigned) [Example 138] | 0.017 |  | 0.251 |  | −74.26 | 0.251 |  |
| 0.00631 | 0.027 | COC[C@@H]1C[C@H](c2ccc(N(C)S(=O)(=O)c3ccc4c(c3)nc(C)n4C)cc2)[C@@H](C(=O)O)[C@H](C(=O)Nc2ccc(C(F)(F)F)cc2F)C1 (single isomer, unassigned) [Example 250] | 0.00851 |  | 0.316 |  |  | 0.316 | 72.95 |
| 0.00501 | 0.0214 | CCO[C@@H]1C[C@H](c2ccc(NS(=O)(=O)c3ccc4c(c3)nc(C)n4C)cc2)[C@@H](C(=O)O)[C@H](C(=O)Nc2ccc(C(F)(F)F)cc2F)C1 [Example 288, (1R,2S,4R,6R)-2-(4-((1,2-dimethyl-1H-benzo[d]imidazole)-5-sulfonamido)phenyl)-4-ethoxy-6-((2-fluoro-4-(trifluoromethyl)phenyl)carbamoyl)cyclohexane-1-carboxylic acid] | 0.0214 |  | 1 |  |  | 1 |  |
| 0.00501 | 0.102 | CCOC1CC(C(=O)Nc2ccc(C(F)(F)F)cc2)C(C(=O)O)C(c2ccc(N(C)S(=O)(=O)c3ccc4c(c3)nc(C)n4C)cc2)C1 [Example 330, rel-(1R,2R,4R,6S)-4-ethoxy-2-((4-(trifluoromethyl)phenyl)carbamoyl)-6-(4-((N,1,2-trimethyl-1H-benzo[d]imidazole)-5-sulfonamido)phenyl)cyclohexane-1-carboxylic acid] | 0.0407 |  | 0.398 |  |  | 0.398 |  |
| 0.00158 | 0.175 | CCO[C@@H]1C[C@H](c2ccc(N(C)S(=O)(=O)c3ccc4c(c3)nc(CO)n4C)cc2)[C@@H](C(=O)O)[C@H](C(=O)Nc2ccc(C(F)(F)F)cc2F)C1 [Example 373, (1R,2R,4R,6S)-4-ethoxy-2-((2-fluoro-4-(trifluoromethyl)phenyl)carbamoyl)-6-(4-((2-(hydroxymethyl)-N,1-dimethyl-1H-benzo[d]imidazole)-5-sulfonamido)phenyl)cyclohexane-1-carboxylic acid] | 0.0174 |  | 0.1 |  |  | 0.1 |  |

Further lines, the compound ahead of its results:

| SMILES | IC50 [4] [µM] | fraction unbound at 4 h, 1 µM [5] | CC50 [1] [µM] | mean tumor regression ([2]; 100 mpk daily oral, 55th day) [%] | CC50 [3, 6] [µM] | SW48 pCC50 ([3]; SW48 cell viability, 120 hours incubation, Table 2) | mean tumor regression ([2]; 30 mpk orally once a day, 21st day) [%] | CC50 [3, 7] [µM] | tumor growth inhibition compared to the vehicle control ([2]; 30 mpk daily oral, 21st day) [%] |
| --- | --- | --- | --- | --- | --- | --- | --- | --- | --- |
| CN(c1ccc([C@H]2CCC[C@@H](C(=O)Nc3ccc(C(F)(F)F)cc3F)[C@@H]2C(=O)O)cc1)S(C)(=O)=O [Example 285, (1R,2R,6S)-2-((2-fluoro-4-(trifluoromethyl)phenyl)carbamoyl)-6-(4-(N-methylmethylsulfonamido)phenyl) cyclohexane-1-carboxylic acid] | 0.0316 | 0.549 | 3.47 |  | 6.31 |  |  | 6.31 |  |
| Cc1nc2cc(S(=O)(=O)N(C)c3ccc([C@H]4CCC[C@@H](C(=O)Nc5ccc(C(F)(F)F)cc5F)[C@@H]4C(=O)O)cc3)cc(CCN)c2n1C [Example 289, (1R,2S,6R)-2-(4-((7-(2-aminoethyl)-N,1,2-trimethyl-1H-benzo[d]imidazole)-5-sulfonamido)phenyl)-6-((2-fluoro-4-(trifluoromethyl)phenyl)carbamoyl)cyclohexane-1-carboxylic acid, hydrochloride] | 0.00158 | 0.412 | 4.07 |  |  |  |  | 10 |  |
| Cc1nc2cc(S(=O)(=O)N(C)c3ccc([C@H]4CCC[C@@H](C(=O)Nc5ccc(C(F)(F)F)cc5F)[C@@H]4C(=O)O)cc3)cc(CCN(C)C)c2n1C [Example 290, (1R,2S,6R)-2-(4-((7-(2-(dimethylamino)ethyl)-N,1,2-trimethyl-1H-benzo[d]imidazole)-5-sulfonamido)phenyl)-6-((2-fluoro-4-(trifluoromethyl)phenyl)carbamoyl)cyclohexane-1-carboxylic acid] | 0.00158 | 0.411 | 0.162 |  | 0.398 |  |  | 0.398 |  |
| Cc1cc([C@H]2CCC[C@@H](C(=O)Nc3ccc(C(F)(F)F)cc3F)[C@@H]2C(=O)O)ccc1N(C)S(=O)(=O)c1ccc2c(c1)nc(C)n2C [Example 295, (1R,2R,6S)-2-((2-fluoro-4-(trifluoromethyl)phenyl)carbamoyl)-6-(3-methyl-4-((N,1,2-trimethyl-1H-benzo[d]imidazole)-5-sulfonamido)phenyl)cyclohexane-1-carboxylic acid] | 0.00158 | 0.118 | 0.186 |  | 1.58 |  |  | 1.58 |  |
| Cc1nc2cc(S(=O)(=O)N(C)c3ccc([C@H]4CCC[C@@H](C(=O)Nc5ccc(C(F)(F)F)cc5F)[C@@H]4C(=O)O)cc3Cl)ccc2n1C [Example 296] | 0.00158 | 0.0979 | 0.155 |  | 1.58 |  |  | 1.58 |  |
| CN(c1ccc([C@H]2CCC[C@@H](C(=O)Nc3ccc(C(F)(F)F)cc3F)[C@@H]2C(=O)O)cc1)S(=O)(=O)c1ccc2c(c1)nc(Cl)n2C [Example 365, (1R,2S,6R)-2-(4-((2-chloro-N,1-dimethyl-1H-benzo[d]imidazole)-5-sulfonamido)phenyl)-6-((2-fluoro-4-(trifluoromethyl)phenyl)carbamoyl)cyclohexane-1-carboxylic acid] | 0.00316 | 0.0658 | 0.0263 |  | 0.398 |  |  | 0.398 |  |
| CN(c1ccc([C@H]2CCC[C@@H](C(=O)Nc3ccc(C(F)(F)F)cc3F)[C@@H]2C(=O)O)cc1)S(=O)(=O)c1ccc2c(c1)nc(CO)n2C [Example 372, (1R,2R,6S)-2-((2-fluoro-4-(trifluoromethyl)phenyl)carbamoyl)-6-(4-((2-(hydroxymethyl)-N,1-dimethyl-1H-benzo[d]imidazole)-5-sulfonamido)phenyl)cyclohexane-1-carboxylic acid] | 0.00158 | 0.208 | 0.0417 |  | 0.2 |  |  | 0.2 |  |
| Cc1nc2cc(S(=O)(=O)N(C)c3ccc([C@H]4CCC[C@@H](C(=O)Nc5ccc(C(C)C)cc5)[C@@H]4C(=O)O)cc3)ccc2n1C [Example 396, (1R,2R,6S)-2-((4-isopropylphenyl)carbamoyl)-6-(4-((N,1,2-trimethyl-1H-benzo[d]imidazole)-5-sulfonamido)phenyl)cyclohexane-1-carboxylic acid] | 0.00158 | 0.0717 | 0.0457 |  | 0.631 |  |  | 0.631 |  |
